Reference: patent publication US20190151495A1, “Composite biomaterials with controlled release of active ingredient, preparation process and uses” (CENTRE NATIONAL DE LA RECHERCHE SCIENTIFIQUE, priority 2016, published 2019)

Experiments:
[1] = target: T1, mineralocorticoid receptor (Rattus norvegicus, UniProt P22199); test: Biological activity of spironolactone: luciferase reporter in H9C2 cells incubated with aldosterone; assay type: cell-based; conditions: FIG. 12
T1 construct: H9C2 cells are myoblasts genetically modified by the incorporation of the reporter gene encoding luciferase; endogenous in cells; host or cells: H9C2 myoblasts carrying a luciferase reporter
T1 sequence (P22199 1-981): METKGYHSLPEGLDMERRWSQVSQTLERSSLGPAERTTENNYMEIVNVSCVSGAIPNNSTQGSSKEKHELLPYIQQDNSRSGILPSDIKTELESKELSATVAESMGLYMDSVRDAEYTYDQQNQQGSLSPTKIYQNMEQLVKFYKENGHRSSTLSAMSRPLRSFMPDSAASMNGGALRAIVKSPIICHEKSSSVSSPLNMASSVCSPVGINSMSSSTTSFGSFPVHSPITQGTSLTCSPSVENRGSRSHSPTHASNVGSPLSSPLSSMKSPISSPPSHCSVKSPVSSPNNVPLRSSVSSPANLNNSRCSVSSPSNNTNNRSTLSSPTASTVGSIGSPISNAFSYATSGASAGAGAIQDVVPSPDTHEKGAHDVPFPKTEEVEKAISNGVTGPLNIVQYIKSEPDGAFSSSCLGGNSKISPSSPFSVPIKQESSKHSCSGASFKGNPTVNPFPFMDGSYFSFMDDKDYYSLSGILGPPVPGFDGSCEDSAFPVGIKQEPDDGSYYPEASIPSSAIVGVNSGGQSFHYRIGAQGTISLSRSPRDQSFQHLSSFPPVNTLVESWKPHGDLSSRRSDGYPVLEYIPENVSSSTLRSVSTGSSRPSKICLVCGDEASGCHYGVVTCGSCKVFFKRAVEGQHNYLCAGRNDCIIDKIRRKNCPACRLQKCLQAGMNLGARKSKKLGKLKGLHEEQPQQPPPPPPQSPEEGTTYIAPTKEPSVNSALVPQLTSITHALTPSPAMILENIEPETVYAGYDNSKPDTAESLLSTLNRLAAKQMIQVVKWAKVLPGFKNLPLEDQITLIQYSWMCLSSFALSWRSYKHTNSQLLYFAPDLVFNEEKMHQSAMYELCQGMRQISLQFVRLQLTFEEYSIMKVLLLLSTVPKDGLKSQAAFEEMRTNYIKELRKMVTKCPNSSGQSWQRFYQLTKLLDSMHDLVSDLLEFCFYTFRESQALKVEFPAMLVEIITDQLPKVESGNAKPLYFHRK
Procedure: The biological activity of the spironolactone was measured in the following manner: H9C2 cells are myoblasts genetically modified by the incorporation of the reporter gene encoding luciferase downstream of the promoter having sequences binding the complex of aldosterone plus its receptor. When aldosterone was added, luciferase was expressed and detected by bioluminescence. […] This inhibition reports the biological activity of the spironolactone on H9C2s incubated with aldosterone. The spironolactone activity was measured directly on the spironolactone releasing liquid originating from the different types of hydrogels tested.
FIG. 12 represents the biological activity of the spironolactone released from a hydrogel after 15 days of incubation in PBS (with changing of the buffer every day); when the following are used:
(2) a mixture of a material MB-S with aldosterone at approximately 10^−8 M,
(3) a mixture of a material MC-S with aldosterone at approximately 10^−8 M,
(4) a mixture of a material MA-S with aldosterone at approximately 10^−8 M,
(5) a negative control (well containing the culture medium without aldosterone),
(6) aldosterone at approximately 10^−8 M, and
(7) a mixture of aldosterone at approximately 10^−8 M and spironolactone at approximately 10^−6 M.

[2] = system: primary human dermal fibroblasts; test: Toxicity of the materials: cell viability by metabolic test (AlamarBlue Assay); assay type: cell-based; conditions: FIG. 11
Procedure: The toxicity of the materials was measured as follows: primary human dermal fibroblasts were seeded onto a culture plate. The composite hydrogels were then incubated with the fibroblasts for 1 or 6 days. The cell viability was measured by a metabolic test (AlamarBlue Assay®) and compared with that of control fibroblasts (without addition of composite hydrogel).
FIG. 11 represents the toxicity of the composite biomaterial of the invention M1-S on cells (fibroblasts) and by way of comparison: • the toxicity of a dry collagen material impregnated with spironolactone MB-S obtained from the dehydrated pure collagen material MA-HD as obtained in example 1.3 which was impregnated with a solution comprising approximately 10^−2 M of spironolactone in THF, rinsed and lyophilized in accordance with example 1.4 above, • the toxicity of a dry collagen material impregnated with PLGA MC-S obtained from the dehydrated pure collagen material MA-HD as obtained in example 1.3 which was impregnated with a solution comprising approximately 160 mg/ml of PLGA 30-60 kDa in THF, rinsed and lyophilized in accordance with example 1.4, and • the toxicity of a dry pure collagen material MA-S as obtained in example 1.3.
Moreover, C represents a negative control (well containing just the cells without hydrogel). […]

C[C@]12CCC(=O)C=C1CC[C@@H]1[C@@H]2[C@@H](O)C[C@]2(C=O)[C@@H](C(=O)CO)CC[C@@H]12 [aldosterone]
production of luciferase (receptor activation) ([1]; aldosterone approximately 10^-8 M alone, conditions (6) versus negative control (5)): caused strong transcription

CC(=O)S[C@@H]1CC2=CC(=O)CC[C@]2(C)[C@H]2CC[C@@]3(C)[C@@H](CC[C@@]34CCC(=O)O4)[C@H]12 [spironolactone]
production of luciferase (inhibition of aldosterone effect) ([1]; free spironolactone approximately 10^-6 M with aldosterone approximately 10^-8 M, conditions (7)): the effect of the aldosterone is inhibited | toxicity on cells (in words) ([2]; 1 day and 6 days, compared with control): slight toxic effect | cell viability (cells survived) ([2]; first day, relative to negative control C): 74%
